# Results taken from patent US11739098B2 (BRISTOL-MYERS SQUIBB COMPANY, priority 2017, dated 2023).
# Key:
# Format in all cases: cell-based
# human TLR7 = target: T1, human TLR7 (Homo sapiens, UniProt Q9NYK1); test: TLR7 inhibition reporter assay (HEK-Blue cells, SEAP reporter, gardiquimod stimulation); settings: HEK-Blue cells overexpressing human TLR7, SEAP reporter, gardiquimod 7.5 μM
# T1 construct: host or cells: HEK-Blue cells (HEK293-derived reporter line)
# T1 sequence (Q9NYK1 27-1049): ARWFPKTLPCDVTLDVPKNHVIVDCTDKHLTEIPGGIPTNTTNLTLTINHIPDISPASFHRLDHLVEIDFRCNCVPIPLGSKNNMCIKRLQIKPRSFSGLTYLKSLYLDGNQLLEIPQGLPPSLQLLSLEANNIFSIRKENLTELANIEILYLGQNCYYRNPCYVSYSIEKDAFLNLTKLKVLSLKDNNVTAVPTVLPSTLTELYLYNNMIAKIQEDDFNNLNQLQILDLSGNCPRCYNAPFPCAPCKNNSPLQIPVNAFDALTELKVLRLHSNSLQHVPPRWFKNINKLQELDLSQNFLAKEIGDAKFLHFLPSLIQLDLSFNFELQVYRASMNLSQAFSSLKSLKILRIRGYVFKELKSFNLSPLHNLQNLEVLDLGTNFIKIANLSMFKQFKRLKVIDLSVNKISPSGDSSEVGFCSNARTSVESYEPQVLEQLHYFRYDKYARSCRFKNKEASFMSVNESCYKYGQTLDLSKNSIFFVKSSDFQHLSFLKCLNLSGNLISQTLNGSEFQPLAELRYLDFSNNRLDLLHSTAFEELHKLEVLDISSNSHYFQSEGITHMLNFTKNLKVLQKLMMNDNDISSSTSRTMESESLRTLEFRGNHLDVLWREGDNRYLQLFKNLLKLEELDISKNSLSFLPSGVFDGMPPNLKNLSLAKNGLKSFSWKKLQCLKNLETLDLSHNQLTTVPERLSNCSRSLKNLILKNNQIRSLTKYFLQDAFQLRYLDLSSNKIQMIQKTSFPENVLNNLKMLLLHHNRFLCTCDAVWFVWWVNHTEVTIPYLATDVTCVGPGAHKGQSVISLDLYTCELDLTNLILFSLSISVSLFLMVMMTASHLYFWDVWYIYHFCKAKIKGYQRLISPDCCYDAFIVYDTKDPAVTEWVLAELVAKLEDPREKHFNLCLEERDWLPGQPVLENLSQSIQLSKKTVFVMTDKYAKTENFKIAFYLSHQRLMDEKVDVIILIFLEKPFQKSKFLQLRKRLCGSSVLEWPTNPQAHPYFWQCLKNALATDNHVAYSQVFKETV
# How it was run: (§1)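 After 22 h at 37 °C, SEAP secretion was measured from human TLR7-, TLR8- or TLR9-expressing HEK-Blue reporter cells given compound (0.05 nM–50 μM) 30 min before agonist: 7.5 μM gardiquimod, 15.9 μM R848 or 5 nM ODN2006 respectively. Percent inhibition referenced to agonist-plus-DMSO and known-inhibitor wells.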
# human TLR8 = target: T2, human TLR8 (Homo sapiens, UniProt Q9NR97); test: TLR8 inhibition reporter assay (HEK-Blue cells, SEAP reporter, R848 stimulation); settings: HEK-Blue cells overexpressing human TLR8, SEAP reporter, R848 15.9 μM
# T2 construct: host or cells: HEK-Blue cells (HEK293-derived reporter line)
# T2 sequence (Q9NR97 27-1041): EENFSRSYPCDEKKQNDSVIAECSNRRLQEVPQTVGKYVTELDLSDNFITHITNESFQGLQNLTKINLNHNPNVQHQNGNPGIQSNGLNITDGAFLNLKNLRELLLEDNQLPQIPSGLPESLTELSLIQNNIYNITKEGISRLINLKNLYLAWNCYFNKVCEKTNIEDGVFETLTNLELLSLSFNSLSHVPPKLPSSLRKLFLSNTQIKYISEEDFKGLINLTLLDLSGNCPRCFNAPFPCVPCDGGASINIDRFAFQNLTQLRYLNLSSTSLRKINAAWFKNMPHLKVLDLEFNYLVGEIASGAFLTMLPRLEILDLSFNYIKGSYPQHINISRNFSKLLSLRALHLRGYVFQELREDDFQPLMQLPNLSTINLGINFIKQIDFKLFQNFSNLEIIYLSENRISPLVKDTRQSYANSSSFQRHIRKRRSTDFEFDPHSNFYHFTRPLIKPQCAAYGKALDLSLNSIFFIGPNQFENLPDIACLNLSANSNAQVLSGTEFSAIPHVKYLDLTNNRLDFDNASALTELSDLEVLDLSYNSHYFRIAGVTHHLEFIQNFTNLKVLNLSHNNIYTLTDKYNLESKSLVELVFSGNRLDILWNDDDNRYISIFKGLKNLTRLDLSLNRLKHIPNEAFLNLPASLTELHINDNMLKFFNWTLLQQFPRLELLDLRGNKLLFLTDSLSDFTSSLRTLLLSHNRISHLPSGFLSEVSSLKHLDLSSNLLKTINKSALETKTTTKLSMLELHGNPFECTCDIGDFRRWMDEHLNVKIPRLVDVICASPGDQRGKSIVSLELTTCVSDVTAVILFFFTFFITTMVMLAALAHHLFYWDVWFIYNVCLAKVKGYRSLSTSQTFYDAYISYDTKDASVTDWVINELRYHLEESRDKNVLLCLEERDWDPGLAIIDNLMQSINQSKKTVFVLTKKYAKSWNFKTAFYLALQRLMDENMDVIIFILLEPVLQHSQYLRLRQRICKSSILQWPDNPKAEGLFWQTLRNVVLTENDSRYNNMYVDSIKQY
# How it was run: as §1
# human TLR9 = target: T3, human TLR9 (Homo sapiens, UniProt Q9NR96); test: TLR9 inhibition reporter assay (HEK-Blue cells, SEAP reporter, ODN2006 stimulation); settings: HEK-Blue cells overexpressing human TLR9, SEAP reporter, ODN2006 5 nM
# T3 construct: host or cells: HEK-Blue cells (HEK293-derived reporter line)
# T3 sequence (Q9NR96 26-1032): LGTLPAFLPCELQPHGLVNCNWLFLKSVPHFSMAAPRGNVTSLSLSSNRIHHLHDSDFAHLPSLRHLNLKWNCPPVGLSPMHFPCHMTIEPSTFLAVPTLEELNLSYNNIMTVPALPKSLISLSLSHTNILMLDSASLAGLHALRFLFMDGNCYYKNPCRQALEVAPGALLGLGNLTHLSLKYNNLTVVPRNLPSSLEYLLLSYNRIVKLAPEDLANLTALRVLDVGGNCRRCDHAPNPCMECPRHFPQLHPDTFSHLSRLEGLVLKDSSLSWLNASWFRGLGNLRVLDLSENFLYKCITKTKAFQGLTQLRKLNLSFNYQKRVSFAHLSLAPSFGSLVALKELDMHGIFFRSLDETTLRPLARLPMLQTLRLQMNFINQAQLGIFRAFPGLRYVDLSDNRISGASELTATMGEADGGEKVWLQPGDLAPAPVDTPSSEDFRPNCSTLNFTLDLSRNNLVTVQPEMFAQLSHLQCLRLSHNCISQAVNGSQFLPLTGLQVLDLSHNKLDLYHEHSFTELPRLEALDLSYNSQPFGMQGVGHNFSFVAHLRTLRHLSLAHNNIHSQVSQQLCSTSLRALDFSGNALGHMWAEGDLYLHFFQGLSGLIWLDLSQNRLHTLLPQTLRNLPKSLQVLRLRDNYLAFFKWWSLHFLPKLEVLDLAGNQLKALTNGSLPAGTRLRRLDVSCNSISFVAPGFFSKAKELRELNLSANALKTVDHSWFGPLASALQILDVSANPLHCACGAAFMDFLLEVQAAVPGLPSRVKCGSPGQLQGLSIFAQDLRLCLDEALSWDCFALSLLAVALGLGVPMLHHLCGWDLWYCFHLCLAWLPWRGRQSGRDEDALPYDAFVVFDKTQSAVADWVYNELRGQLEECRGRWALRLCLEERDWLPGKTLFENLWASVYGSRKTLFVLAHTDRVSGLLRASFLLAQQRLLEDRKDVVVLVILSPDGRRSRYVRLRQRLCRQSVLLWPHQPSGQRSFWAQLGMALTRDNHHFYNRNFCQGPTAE
# How it was run: as §1
Compound,IC50 (human TLR7) [nM],IC50 (human TLR8) [nM],IC50 (human TLR9) [nM]
"CC(C)c1c(-c2cnc3ncnn3c2)[nH]c2ccc(C3CCN(C4CCS(=O)(=O)CC4)CC3)cc12 [Example 798, 4-(4-(2-([1,2,4]triazolo[1,5-a]pyrimidin-6-yl)-3-isopropyl-1H-indol-5-yl)piperidin-1-yl)tetrahydro-2H-thiopyran 1,1-dioxide]",< 100,< 100,1000 to 50000
"CNC(=O)CN1CCC(c2ccc3[nH]c(-c4cc(C)c5nnnn5c4)c(C(C)C)c3c2)CC1 [Example 312, 2-(4-(3-isopropyl-2-(8-methyltetrazolo[1,5-a]pyridin-6-yl)-1H-indol-5-yl)piperidin-1-yl)-N-methylacetamide]",< 100,< 100,1000 to 50000
"CNC(=O)CN1CCC(c2ccc3[nH]c(-c4ccn5cnnc5c4)c(C(C)C)c3c2)CC1 [Example 306, 2-(4-(2-([1,2,4]triazolo[4,3-a]pyridin-7-yl)-3-isopropyl-1H-indol-5-yl)piperidin-1-yl)-N-methylacetamide]",100 to 1000,100 to 1000,1000 to 50000
"CC(C)c1c(-c2ccc3cncn3c2)[nH]c2ccc(C3CCNCC3)cc12 [Example 183, 6-(3-isopropyl-5-(piperidin-4-yl)-1H-indol-2-yl)imidazo[1,5-a]pyridine]",100 to 1000,100 to 1000,1000 to 50000
"CC(C)c1c(-c2ccnc3cnn(C)c23)[nH]c2ccc(C3CCNCC3)cc12 [Example 43, 7-(3-isopropyl-5-(piperidin-4-yl)-1H-indol-2-yl)-1-methyl-1H-pyrazolo[4,3-b]pyridine]",100 to 1000,< 100,1000 to 50000
"CNC(=O)CN1CCC(c2ccc3[nH]c(-c4cc(CO)c5nccn5c4)c(C(C)C)c3c2)CC1 [Example 341, 2-(4-(2-(8-(hydroxymethyl)-6-imidazo[1,2-a]pyridinyl-6-yl)-3-isopropyl-1H-indol-5-yl)piperidin-1-yl)-N-methylacetamide]",< 100,< 100,100 to 1000
"Cc1cc(-c2[nH]c3ccc(C4CCNCC4)cc3c2C(C)C)cc2c(C(=O)N(C)C)cnn12 [Example 275, 5-(3-isopropyl-5-(piperidin-4-yl)-1H-indol-2-yl)-N,N,7-trimethylpyrazolo[1,5-a]pyridine-3-carboxamide]",100 to 1000,> 3130,1000 to 50000
"Cc1c(-c2ccnc3[nH]cc(C)c23)[nH]c2ccc(C3CCNCC3)cc12 [Example 4, 3-methyl-4-(3-methyl-5-(piperidin-4-yl)-1H-indol-2-yl)-1H-pyrrolo[2,3-b]pyridine]",100 to 1000,100 to 1000,100 to 1000
"CC(C)c1c(-c2ccnc3c2ncn3C)[nH]c2ccc(C3CCNCC3)cc12 [Example 44, 7-(3-isopropyl-5-(piperidin-4-yl)-1H-indol-2-yl)-3-methyl-3H-imidazo[4,5-b]pyridine]",1000 to 50000,1000 to 50000,1000 to 50000
"CC(C)c1c(-c2ccc3nnnn3c2)[nH]c2ccc(C3CCN(CC(=O)N(C)C)CC3)cc12 [Example 301, 2-(4-(3-isopropyl-2-(tetrazolo[1,5-a]pyridin-6-yl)-1H-indol-5-yl)piperidin-1-yl)-N,N-dimethylacetamide]",< 100,100 to 1000,1000 to 50000

# Further lines, results first:
IC50 (human TLR7) [nM],IC50 (human TLR8) [nM],IC50 (human TLR9) [nM],Compound
< 100,< 100,100 to 1000,"Cc1ncc(CN2CCC(c3ccc4[nH]c(-c5ccnc6[nH]ncc56)c(C(C)C)c4c3)CC2)[nH]1 [Example 869, 4-(3-isopropyl-5-(1-((2-methyl-1H-imidazol-5-yl)methyl)piperidin-4-yl)-1H-indol-2-yl)-1H-pyrazolo[3,4-b]pyridine]"
< 100,< 100,< 100,"CC1CC(N2CCC(c3ccc4[nH]c(-c5ccnc6[nH]ncc56)c(C(C)C)c4c3)CC2)CCN1 (stereo not drawn) [Example 820, 4-(3-isopropyl-5-(2′-methyl-[1,4′-bipiperidin]-4-yl)-1H-indol-2-yl)-1H-pyrazolo[3,4-b]pyridine]"
100 to 1000,100 to 1000,100 to 1000,"Cc1nc2c(-c3[nH]c4ccc(C5CCNCC5)cc4c3C(C)C)ccc(C)n2n1 [Example 151, 8-(3-isopropyl-5-(piperidin-4-yl)-1H-indol-2-yl)-2,5-dimethyl-[1,2,4]triazolo[1,5-a]pyridine]"
< 100,< 100,100 to 1000,"Cc1cc(-c2[nH]c3ccc(C4CCN(CC#N)CC4)cc3c2C(C)C)cn2nnnc12 [Example 961, 2-(4-(3-isopropyl-2-(8-methyltetrazolo[1,5-a]pyridin-6-yl)-1H-indol-5-yl)piperidin-1-yl)acetonitrile]"
100 to 1000,1000 to 50000,1000 to 50000,"CC(C)c1c(-c2cnc3ccnn3c2)[nH]c2ccc(C3CCN(CC(C)(C)O)CC3)cc12 [Example 759, 1-(4-(3-isopropyl-2-(pyrazolo[1,5-a]pyrimidin-6-yl)-1H-indol-5-yl)piperidin-1-yl)-2-methylpropan-2-ol]"
